We go through 9 compounds from patent US20200223889A1, “Bicyclic Compounds Capable of Binding to Melanocortin 4 Receptor” (Novo Nordisk A/S, priority 2017, published 2020).

Assay [1] deals with T1, human MC4R (Homo sapiens, UniProt P32245).
T1 construct: expressed in transfected cells
In words: 125NDP-α-MSH competitive binding to membranes of BHK cells expressing human MC4 receptor (filtration assay). Summed up: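 Displacement of ^125NDP-α-MSH (apx. […] final) was measured by filtration after 2 h at 25 °C, using diluted membranes of stably transfected BHK cells in pH 7.0 HEPES buffer. Compounds spanned 1 μM to 0.001 nM; binding curves were analysed by non-linear regression.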

Assay [2] in a line: In vivo acute food intake model (BioDAQ) in C57BL/6J male mice. The settings on record: single subcutaneous dose 1 mg/kg, cumulative food intake. The procedure: The MC4R system is central to appetite regulation and agonists are known inhibit food intake. In order to screen compounds in a relevant in vivo model, efficacy was assessed by determining the effect of the compound on reducing food intake acutely in mice.
All animal protocols were approved by an Institutional Animal Care and Use Committee and Ethical Review Committee of Novo Nordisk. Animals were housed according to Novo Nordisk rodent housing standards, and were given ad libitum access to food and water under controlled lighting (12 h:12 h light/dark cycle; lights off 11:00-23:00), temperature (23±2° C.) and relative humidity (50±20%) conditions. For each acute food intake study C57BL/6J male mice (25-30 grams body weight) were acclimated for two weeks to the appropriate light cycle and to single-housing (one mouse per cage) in cages linked to a BioDAQ automated food intake system (Research Diets Inc., New Brunswick, N.J. USA). The animals were also acclimated to new food (Research Diets 12450B, 10% kcal fat) during this time.
The BioDAQ is a computer automated scientific instrument for Biological Data Acquisition of food intake in rodents and measures food intake from each cage every 15 minutes. A total of 32 animals can be accommodated in the system per study, therefore, animals were randomized into 4 groups of n=8 for each study. […] Animals were fasted ˜4 hr prior to dosing. Vehicle (10 mM phosphate; 140 mM sodium chloride) or compound was dosed at a volume of 10 ml per kg subcutaneously approximately 20 minutes prior to the start of the dark cycle (compound chem no. and dosages are indicated in table 2 below). After dosing, food intake was recorded for approximately 24 hours.
The inhibitory effect of compounds on food intake was generally well-correlated with in vitro binding affinity on the human MC4 receptor and with plasma stability of the compound. Most studies were conducted as dose response studies with vehicle and the compound at 3 doses (0.3, 1 and 3 mg/kg). Some studies were done for the purpose of dose-range finding, while others were done to comparatively assess the effect of 3 compounds at the same dose. Maximal effects on food intake occurred within the first 1-5 hours post-dose. The comparative effect of compounds across studies on food intake was assessed by normalizing measurements as % effect on cumulative food intake after a single subcutaneous dose, relative to vehicle. Results are reported in Table 2 as % effect on food intake at 3 hours post dose.

Assay [3] concerns the target T1, human MC4R. In words: Functional cAMP assay (CisBio HTRF) in BHK cells expressing human MC4R. The format is cell-based. The settings on record: for MC1R/MC4R cAMP EC50 ratio: MC1R cAMP EC50 divided by MC4R cAMP EC50. Summed up:
(§1)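 Compound working solutions, 10-fold dilutions from 2 μM at twice final strength, in buffer containing 1 mM IBMX, were incubated 30 min at 25 °C with BHK cells stably carrying human MC4R or MC1R. Accumulated cAMP was then detected by competitive HTRF after 1 h at 25 °C and fitted by non-linear regression.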

In a further assay the target is T2, human MC1R (Homo sapiens, UniProt Q01726).
T2 construct: expressed in transfected cells
T2 sequence (Q01726 whole entry): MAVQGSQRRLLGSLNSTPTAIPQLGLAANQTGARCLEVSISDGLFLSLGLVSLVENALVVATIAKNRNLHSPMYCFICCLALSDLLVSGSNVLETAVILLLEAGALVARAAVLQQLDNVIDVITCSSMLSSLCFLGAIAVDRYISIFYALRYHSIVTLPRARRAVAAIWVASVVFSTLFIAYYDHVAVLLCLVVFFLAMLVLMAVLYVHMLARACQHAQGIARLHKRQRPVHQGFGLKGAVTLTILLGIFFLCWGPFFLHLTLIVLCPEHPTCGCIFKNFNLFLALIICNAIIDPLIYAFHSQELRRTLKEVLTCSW
Description: Functional cAMP assay (CisBio HTRF) in BHK cells expressing human MC1R. The format is cell-based. The method, boiled down:
as §1
On the technique in general: Cyclic AMP is a second messenger, typically raised through Gs and lowered through Gi signalling.

[4] abbreviates: human MC4R, BHK cell membranes, 125NDP-α-MSH radioligand, read-out: MC4R binding Ki.
Where [5] appears, read: BHK cells expressing human MC4R, '>' = highest dose used with no response, read-out: MC4R cAMP EC50.

Where two headings read alike, the source gives them in different places. Positions of bridges follow the written chain, without caps; N, C: chain ends. Non-standard residues stand in square brackets, D forms with d. Residues, ends and D or L forms follow the SMILES beside them. Hyp = O=C(O)[C@@H]1C[C@@H](O)CN1; Orn = NCCC[C@H](N)C(=O)O; Thz = O=C(O)[C@@H]1CSCN1

T1 sequence (P32245 whole entry): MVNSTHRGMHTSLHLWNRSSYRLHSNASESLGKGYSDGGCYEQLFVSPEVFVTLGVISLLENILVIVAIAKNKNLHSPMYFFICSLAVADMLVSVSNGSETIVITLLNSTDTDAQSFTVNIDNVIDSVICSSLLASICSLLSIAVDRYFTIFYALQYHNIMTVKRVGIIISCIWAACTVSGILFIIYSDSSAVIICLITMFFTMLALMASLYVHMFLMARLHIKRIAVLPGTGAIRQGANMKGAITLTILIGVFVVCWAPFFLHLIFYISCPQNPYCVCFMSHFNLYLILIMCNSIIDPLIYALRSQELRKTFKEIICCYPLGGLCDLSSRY

On to `C[C@@H]1NC(=O)[C@@H]2CSSC[C@H](NC(=O)[C@H](CCCNC(=N)N)NC(=O)[C@H](CCCCN)NC(=O)[C@H](CCCCN)NC(=O)[C@H](Cc3c[nH]cn3)NC1=O)C(=O)N1CCC[C@H]1C(=O)N[C@@H](Cc1c[nH]cn1)C(=O)N[C@H](Cc1ccccc1)C(=O)N[C@@H](Cc1c[nH]cn1)C(=O)N[C@@H](Cc1c[nH]c3ccccc13)C(=O)N2` [Chem. 96, c[c[Cys-Pro-His-D-Phe-His-Trp-Cys]- Ala-His-Lys-Lys-Arg]] (cyclo(AHKKRCPH[dF]HWC); disulfide 6-12), for which the Ki on human MC4R [1] (setting [4]) was 0.04 nM. Moreover, the “% Effect on food intake at 3 hours post dose, relative to vehicle” value (“% Effect on food intake … relative to vehicle” for short) in assay [2] is given as −17 ± 14%. Also, the EC50 on human MC4R [3] (setting [5]) was determined as 0.04 nM. In addition, the “MC1R/MC4R cAMP EC50 ratio” value on human MC4R [3] is 1442.
Consider `NCCCC[C@@H]1NC(=O)[C@@H]2CSSC[C@H](NC(=O)[C@H](Cc3c[nH]c4ccccc34)NC(=O)[C@H](Cc3c[nH]cn3)NC(=O)[C@@H](Cc3ccccc3)NC(=O)[C@H](Cc3c[nH]cn3)NC1=O)C(=O)N[C@@H](CCCCN)C(=O)N[C@@H](Cc1c[nH]cn1)C(=O)N[C@H](Cc1ccccc1)C(=O)N[C@@H](Cc1c[nH]cn1)C(=O)N[C@@H](Cc1c[nH]c3ccccc13)C(=O)N2` [Chem. 52, c[c[Cys-Lys-His-D-Phe-His-Trp-Cys]- Lys-His-D-Phe-His-Trp]] (cyclo(CKH[dF]HWCKH[dF]HW); disulfide 1-7), for which the “% Effect on food intake … relative to vehicle” value in assay [2] is recorded as −66 ± 9%. Further, the “MC1R/MC4R cAMP EC50 ratio” value on human MC4R [3] was 207.
Regarding `C[C@@H]1NC(=O)[C@@H]2CSSC[C@H](NC(=O)[C@H](Cc3c[nH]c4ccccc34)NC(=O)[C@H](CCCNC(=N)N)NC(=O)[C@@H](Cc3ccccc3)NC(=O)[C@H](Cc3c[nH]cn3)NC1=O)C(=O)N[C@@H](C)C(=O)N[C@@H](Cc1c[nH]cn1)C(=O)N[C@H](Cc1ccccc1)C(=O)N[C@@H](CCCNC(=N)N)C(=O)N[C@@H](Cc1c[nH]c3ccccc13)C(=O)N2` [Chem. 111, c[c[Cys-Ala-His-D-Phe-Arg-Trp-Cys]- Ala-His-D-Phe-Arg-Trp]], the values for the 50% effective concentration (EC50) on human MC1R and on human MC4R [3] were 0.31 nM and 0.01 nM, respectively. Besides, the affinity on human MC4R [1], expressed as Ki, was 0.04 nM. For the same compound, the “% Effect on food intake … relative to vehicle” value in assay [2] was −63 ± 4%. Further, the “MC1R/MC4R cAMP EC50 ratio” value at human MC4R [3] was 31.
Compound `C[C@@H]1NC(=O)[C@H](CCCCN)NC(=O)[C@H](CCCCN)NC(=O)[C@H](C)NC(=O)[C@@H]2CSSC[C@H](NC(=O)[C@H](Cc3c[nH]c4ccccc34)NC1=O)C(=O)N1CSC[C@H]1C(=O)N[C@@H](Cc1c[nH]cn1)C(=O)N[C@H](Cc1ccccc1)C(=O)N[C@@H](Cc1c[nH]cn1)C(=O)N[C@@H](Cc1c[nH]c3ccccc13)C(=O)N2` [Chem. 110, c[c[Cys-THAZ-His-D-Phe-His-Trp- Cys]-Ala-Lys-Lys-Ala-Trp]] (cyclo(AKKAWC[Thz]H[dF]HWC); disulfide 6-12) yielded a Ki at human MC4R [1] of 0.09 nM. The “% Effect on food intake … relative to vehicle” value in assay [2] was −26 ± 15%. Besides, on human MC4R [3], the EC50 was determined as 0.05 nM and the “MC1R/MC4R cAMP EC50 ratio” value came to 1266.
Take `C[C@@H]1NC(=O)[C@@H]2CSSC[C@H](NC(=O)[C@H](Cc3c[nH]c4ccccc34)NC(=O)[C@H](CCCCN)NC(=O)[C@H](CCCCN)NC(=O)[C@H](CCCCN)NC1=O)C(=O)N1C[C@H](O)C[C@H]1C(=O)N[C@@H](Cc1c[nH]cn1)C(=O)N[C@H](Cc1ccccc1)C(=O)N[C@@H](Cc1c[nH]cn1)C(=O)N[C@@H](Cc1c[nH]c3ccccc13)C(=O)N2` [Chem. 70, c[c[Cys-Hyp-His-D-Phe-His-Trp-Cys]- Ala-Lys-Lys-Lys-Trp]] (cyclo(AKKKWC[Hyp]H[dF]HWC); disulfide 6-12): the Ki on human MC4R [1] (setting [4]) worked out at 0.07 nM. Besides, the “% Effect on food intake … relative to vehicle” value in assay [2] is recorded as −39 ± 10%. Also, on human MC4R [3] (setting [5]), the EC50 came out at 0.38 nM. The “MC1R/MC4R cAMP EC50 ratio” value on human MC4R [3] turned out to be 199.
At human MC1R, `C[C@@H]1NC(=O)[C@H](C)NC(=O)[C@H](C)NC(=O)[C@@H]2CSSC[C@H](NC(=O)[C@H](CCCNC(=N)N)NC(=O)[C@H](C)NC1=O)C(=O)N[C@@H](C)C(=O)N[C@@H](Cc1c[nH]cn1)C(=O)N[C@H](Cc1ccccc1)C(=O)N[C@@H](CCCNC(=N)N)C(=O)N[C@@H](Cc1c[nH]c3ccccc13)C(=O)N2` [Chem. 89, c[c[Cys-Ala-His-D-Phe-Arg-Trp-Cys]- Ala-Ala-Ala-Ala-Arg]] (cyclo(AAAARCAH[dF]RWC); disulfide 6-12) had an EC50 of 0.59 nM. Also, the Ki at human MC4R [1] worked out at 0.07 nM. Besides, on human MC4R [3], the EC50 worked out at 0.02 nM and the “MC1R/MC4R cAMP EC50 ratio” value was found to be 30.
For `C[C@@H]1NC(=O)[C@@H]2CSSC[C@H](NC(=O)[C@H](CCCNC(=N)N)NC(=O)[C@H](CCCCN)NC(=O)[C@H](CCCCN)NC(=O)[C@H](CCCCN)NC1=O)C(=O)N[C@H](C)C(=O)N[C@@H](Cc1c[nH]cn1)C(=O)N[C@H](Cc1ccccc1)C(=O)N[C@@H](CCCNC(=N)N)C(=O)N[C@@H](Cc1c[nH]c3ccccc13)C(=O)N2` [Chem. 85, c[c[Cys-D-Ala-His-D-Phe-Arg-Trp- Cys]-Ala-Lys-Lys-Lys-Arg]] (cyclo(AKKKRC[dA]H[dF]RWC); disulfide 6-12), the concentration for a half-maximal effect (EC50) came out at 0.22 nM at human MC1R (BHK cells expressing human MC1R, '>' = highest dose used with no response, read-out: MC1R cAMP EC50) and 0.01 nM on human MC4R [3] (setting [5]). Besides, on human MC4R [1] (setting [4]), the Ki was 0.02 nM. Moreover, the “MC1R/MC4R cAMP EC50 ratio” value at human MC4R [3] turned out to be 22.
Consider `C[C@@H]1NC(=O)[C@@H]2CSSC[C@H](NC(=O)[C@H](CCCNC(=N)N)NC(=O)[C@H](CCCN)NC(=O)[C@H](CCC(=O)O)NC(=O)[C@H](Cc3c[nH]cn3)NC1=O)C(=O)N1CSC[C@H]1C(=O)N[C@@H](Cc1c[nH]cn1)C(=O)N[C@H](Cc1ccccc1)C(=O)N[C@@H](Cc1c[nH]cn1)C(=O)N[C@@H](Cc1c[nH]c3ccccc13)C(=O)N2` [Chem. 120, c[c[Cys-THAZ-His-D-Phe-His-Trp- Cys]-Ala-His-Glu-Orn-Arg]] (cyclo(AHE[Orn]RC[Thz]H[dF]HWC); disulfide 6-12), for which, in assay [2], the “% Effect on food intake … relative to vehicle” value is −28 ± 12%. On human MC4R [3], a half-maximal response (EC50) required 0.08 nM and the “MC1R/MC4R cAMP EC50 ratio” value came out at 3673.
Take `C[C@@H]1NC(=O)[C@@H]2CSSC[C@H](NC(=O)[C@H](Cc3c[nH]c4ccccc34)NC(=O)[C@H](CCCCN)NC(=O)[C@H](CCCCN)NC(=O)[C@H](CCCCN)NC1=O)C(=O)N1CSC[C@H]1C(=O)N[C@@H](Cc1c[nH]cn1)C(=O)N[C@H](Cc1ccccc1)C(=O)N[C@@H](Cc1c[nH]cn1)C(=O)N[C@@H](Cc1c[nH]c3ccccc13)C(=O)N2` [Chem. 81, c[c[Cys-THAZ-His-D-Phe-His-Trp- Cys]-Ala-Lys-Lys-Lys-Trp]] (cyclo(AKKKWC[Thz]H[dF]HWC); disulfide 6-12): the affinity at human MC4R [1] corresponds to a Ki of 0.03 nM. Further, the “% Effect on food intake … relative to vehicle” value in assay [2] is given as −72 ± 7%. Further, at human MC4R [3], the EC50 came out at 0.07 nM and the “MC1R/MC4R cAMP EC50 ratio” value came out at 957.

Usually Ki stands for a dissociation constant, usually derived from enzyme kinetics or from competition with a known ligand. As a reminder, the EC50 is the concentration that produces a half-maximal response.
